According to US9949489B2, “Methods for control of hemipteran insect stylet sheath structure formation” (The United States of America, as Represented by the …, priority 2015, dated 2018):

Legend:
D. citri [1] = test: Liquid ACP diet sandwich feeding assay (MFC): inhibition of de novo stylet sheath formation; type: in vivo, Diaphorina citri; set-up: key: −: No effect apparent; +/−: inconclusive; +: apparent slight effect; ++: increased apparent effect; +++: high effect; ++++: very high effect; +++++: complete degradation of sheaths or inhibition of sheath synthesis; details: enzyme in liquid ACP diet, about 24 h, 25° C., enzyme amounts and pH per Table 5 (cellulase approx 1 unit/μl)
Description: The next step was to determine if addition of cellulase to the diet of D. citri would interfere with stylet sheath formation. A D. citri diet is prepared as described by Hall, David et al., “Research toward an artificial diet for adult Asian citrus psyllid,” Annals of the Entomological Society of America 103.4:611-617 (2010). Approximately 25 D. citri were collected into polystyrene Cellstar 35 mm×10 mm dishes (Griener Bio-One, Monroe, N.C.) that were then sealed using a single layer of Parafilm® M (Pechiney Plastic Packaging Company, Chicago, Ill.). Approximately 99 μl of liquid ACP diet (e.g., diet lacking the solidifying agar component, see Hall, et. al., 2010, supra) was mixed with approximately 1 μl of cellulase (Sigma Aldrich, St. Louis, Mo.) and mixed. […]
Because many biomolecule polymerizing enzymes require divalent cations as cofactors, the effect of ethylenediaminetetraacetic acid (EDTA), a chelator of divalent cations, on ACP SS formation was tested by adding EDTA to the previously described liquid ACP diet (see Hall et al., 2010, supra). […] Uncommon bands between the liquid ACP diet containing EDTA and liquid ACP diet without EDTA (negative control) lanes were cut out and analyzed by Orbitrap (Thermo Scientific, Waltham, Mass.) protein analysis, according to manufacturer's protocol. […]

[2] = system: D. citri stylet sheaths (ACP SSs); test: Degradation of preformed, solidified stylet sheaths by enzymes (MFC membrane or slide incubation); set-up: species or system Diaphorina citri; key to Sheath Degradation: −: No effect apparent; +/−: inconclusive; +: apparent slight effect; ++: increased apparent effect; +++: high effect; ++++: very high effect; +++++: complete degradation of sheaths or inhibition of sheath synthesis; details: D. citri preformed sheaths; enzyme concentration, pH and temperature per Table 4 (cellulase 1:25, pH 6.0, 60° C.)
Description: In order to test cellulase's effect on preformed ACP SSs, formed, solidified stylet sheaths were harvested directly from the surface of an MFC membrane (in these experiments either plastic wrap or parafilm was used) as described herein and in Morgan et al. 2013, supra. Approximately 100 psyllids were placed into an MFC for about 24 hours. The MFCs consisted of D. citri caged individually and/or in groups within 100 mm×15 mm plastic Petri dishes. A single kitchen plastic wrap layer was stretched across the top of each Petri dish to seal the Petri dish from insect escape and to provide a stylet penetrable surface for insect probing.
Several MFCs (the Petri dishes covered with kitchen plastic wrap or parafilm and containing D. citri) were placed into clear Pyrex® baking dishes with the membrane (kitchen plastic wrap or parafilm) side up, and the Pyrex® baking dish is covered with a single layer of clear kitchen plastic wrap to prevent external contaminant interactions with the membrane surface during incubation. MFCs were incubated at a temperature of about 25° C., relative humidity of about 75%, and a light:dark cycle of about […]. […]

D. citri [3] = test: Liquid ACP diet sandwich feeding assay (MFC): inhibition of de novo stylet sheath formation; type: in vivo, Diaphorina citri; details: about 24 h; cellulase approx 1 unit/μl; BAPN 100 mM; EDTA approx 2 mM; proteases per Table 5
Description: The next step was to determine if addition of cellulase to the diet of D. citri would interfere with stylet sheath formation. A D. citri diet is prepared as described by Hall, David et al., “Research toward an artificial diet for adult Asian citrus psyllid,” Annals of the Entomological Society of America 103.4:611-617 (2010). Approximately 25 D. citri were collected into polystyrene Cellstar 35 mm×10 mm dishes (Griener Bio-One, Monroe, N.C.) that were then sealed using a single layer of Parafilm® M (Pechiney Plastic Packaging Company, Chicago, Ill.). Approximately 99 μl of liquid ACP diet (e.g., diet lacking the solidifying agar component, see Hall, et. al., 2010, supra) was mixed with approximately 1 μl of cellulase (Sigma Aldrich, St. Louis, Mo.) and mixed. […] layer Parafilm® M surface, which was then covered with another layer of Parafilm® M to form a sandwich (e.g., Parafilm® M—liquid ACP diet with cellulase—Parafilm® M) to allow ACP to feed into the liquid ACP diet containing cellulase. This MFC was then incubated at about 25° C., at about 75% relative humidity, with a light:dark cycle of approximately 14:10 hours for a period of about 24 hours. After about 24 hours, the stylet sheaths were observed using an inverted microscope. FIGS. 3G through 3I are images of three separate locations where D. citri made attempts to feed into the liquid ACP diet containing approximately 1 unit/μl cellulase.
Because many biomolecule polymerizing enzymes require divalent cations as cofactors, the effect of ethylenediaminetetraacetic acid (EDTA), a chelator of divalent cations, on ACP SS formation was tested by adding EDTA to the previously described liquid ACP diet (see Hall et al., 2010, supra). The EDTA was added to the liquid ACP diet at a concentration of approximately 2 mM EDTA in diH2O. Approximately 200 D. citri were placed in plastic Petri dishes. The dishes were covered with a single layer of Parafilm® M to form MFC. […] The MFC plates were incubated at a temperature of about 25° C., a relative humidity of about 75%, and a light/dark cycle of about 14:10 hours duration. Following the 24-hour incubation, the fluid (either liquid ACP diet containing EDTA or just the liquid ACP diet) between the two sheets of plastic was harvested by using a sterile 5 ml syringe and 20-gauge needle which was pushed into the center of the Parafilm® M-fluid-Parafilm® M sandwich, and the fluid was then removed by syringe plunger suction. The harvested fluids were put into sterile 50 ml conical vials, placed at about −80° C. until frozen. Each vial of harvested fluid was then lypholyzed overnight. The lyophilized product was then solubilized in […], placed at about −80° C. until frozen, then each new vial was lyopholyzed overnight. The lyophilized product was then solubilized in approximately 15 μL of approximately 1× Laemmili buffer (Bio-Rad, Hercules, Calif.) containing approximately 5% 2-mercaptoethanol. The sample was loaded onto a sodium dodecyl sulfate polyacrylamide gel (SDS-PAGE) and underwent electrophoresis. The SDS PAGE gel was then stained with coomassie. Uncommon bands between the liquid ACP diet containing EDTA and liquid ACP diet without EDTA (negative control) lanes were cut out and analyzed by Orbitrap (Thermo Scientific, Waltham, Mass.) protein analysis, according to manufacturer's protocol.
After about 24-hour incubation, D. citri feeding sites were observed. […] See also Table 2 and Table 3, infra.

Chymopapain from papaya latex: Cysteine peptidase; Sigma #C8526
Inhibition of Sheath Formation (D. citri [1]): +++++ | Sheath Degradation [2]: +++++ | Effect on D. citri stylet sheath formation in liquid ACP diet (D. citri [3]): capable of inhibiting the formation of ACP SSs
